Measured values published in US20100099561A1, “HETEROBICYCLIC ALKYLTHIO-BRIDGED ISOXAZOLINES” (E.I. DU PONT DE NEMOURS AND COMPANY, priority 2008, published 2010).

Legend:
Format in all cases: in vivo
[1] = tested on: velvetleaf (Abutilon theophrasti); assay: Test B preemergence, velvetleaf; settings: Preemergence, scale 0 to 100
Summary of the method: (§1)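 Visual injury rating, 0 (no effect) to 100 (complete control), made versus controls after 13 to 15 days in the greenhouse. Compounds were applied preemergence in a surfactant-containing non-phytotoxic solvent to seeds planted in loam/sand soil.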

soybean (Glycine max) = assay: Test B preemergence, soybean; settings: Preemergence, scale 0 to 100
Summary of the method: as §1

[2] = tested on: lambsquarters (Chenopodium album); assay: Test B preemergence, lambsquarters; settings: scale 0 to 100
Summary of the method: as §1

[3] = tested on: morningglory (Ipomoea spp.); assay: Test A preemergence, morningglory; settings: 0 to 100 scale (0 no effect, 100 complete control)
Summary of the method: (§2)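 Scores reflect visual plant injury on a 0 (no effect) to 100 (complete control) scale, assessed about ten days after application in the greenhouse. Compounds were delivered in a non-phytotoxic solvent blend with surfactant, either preemergence to soil or postemergence at one- to two-leaf stage.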

[4] = tested on: large crabgrass (Digitaria sanguinalis); assay: Test A postemergence, large crabgrass; settings: 0 to 100 scale (0 no effect, 100 complete control)
Summary of the method: as §2

[5] = tested on: nightshade (eastern black nightshade, Solanum ptycanthum); assay: Test B preemergence, nightshade; settings: scale 0 to 100
Summary of the method: as §1

[6] = tested on: ragweed (common ragweed, Ambrosia elatior); assay: Test B preemergence, ragweed; settings: scale 0 to 100
Summary of the method: as §1

[7] = tested on: Italian ryegrass (Lolium multiflorum); assay: Test B preemergence, Italian ryegrass; settings: Preemergence, scale 0 to 100
Summary of the method: as §1

[8] = tested on: Surinam grass (Brachiaria decumbens); assay: Test B preemergence, Surinam grass; settings: Preemergence, scale 0 to 100
Summary of the method: as §1

wild oat (Avena fatua) = assay: Test B preemergence, wild oat; settings: scale 0 to 100
Summary of the method: as §1

[9] = tested on: large crabgrass (Digitaria sanguinalis); assay: Test B preemergence, large crabgrass; settings: scale 0 to 100
Summary of the method: as §1

[10] = tested on: blackgrass (Alopecurus myosuroides); assay: Test B preemergence, blackgrass; settings: scale 0 to 100
Summary of the method: as §1

[11] = tested on: morningglory (Ipomoea coccinea); assay: Test B preemergence, morningglory; settings: scale 0 to 100
Summary of the method: as §1

[12] = tested on: pigweed (Amaranthus retroflexus); assay: Test B preemergence, pigweed; settings: scale 0 to 100
Summary of the method: as §1

[13] = tested on: morningglory (Ipomoea spp.); assay: Test A postemergence, morningglory; settings: 0 to 100 scale (0 no effect, 100 complete control)
Summary of the method: as §2

[14] = tested on: woolly cupgrass (Eriochloa villosa); assay: Test B preemergence, woolly cupgrass; settings: scale 0 to 100
Summary of the method: as §1

[15] = tested on: bermudagrass (Cynodon dactylon); assay: Test B preemergence, bermudagrass; settings: scale 0 to 100
Summary of the method: as §1

[16] = tested on: wheat (Triticum aestivum); assay: Test A preemergence, wheat; settings: 0 to 100 scale (0 no effect, 100 complete control)
Summary of the method: as §2

[17] = tested on: downy bromegrass (Bromus tectorum); assay: Test B preemergence, downy bromegrass; settings: scale 0 to 100
Summary of the method: as §1

[18] = tested on: wheat (Triticum aestivum); assay: Test A postemergence, wheat; settings: 0 to 100 scale (0 no effect, 100 complete control)
Summary of the method: as §2

[19] = tested on: barnyardgrass (Echinochloa crus-galli); assay: Test A postemergence, barnyardgrass; settings: 0 to 100 scale (0 no effect, 100 complete control)
Summary of the method: as §2

With `CC1(C)CC(S(=O)(=O)Cc2c(C(F)(F)F)nc3n(c2=O)CCCC3)=NO1` [Compound 8, 3-[[(4,5-dihydro-5,5-dimethyl-3-isoxazolyl)sulfonyl]methyl]-6,7,8,9-tetrahydro-2-(trifluoromethyl)-4H-pyrido[1,2-α]pyrimidin-4-one] the “Plant response rating, Velvetleaf” value ([1]; 16 g ai/ha) was 0, the “Plant response rating, Velvetleaf” value ([1]; 31 g ai/ha) was 0 and the “Plant response rating, Velvetleaf” value ([1]; 62 g ai/ha) was 35. The “Plant response rating, Velvetleaf” value ([1]; 125 g ai/ha) was 45, the “Plant response rating, Soybean” value (soybean (Glycine max); 16 g ai/ha) was 0 and the “Plant response rating, Soybean” value (soybean (Glycine max); 31 g ai/ha) was 0. The “Plant response rating, Soybean” value (soybean (Glycine max); 62 g ai/ha) was 0, the “Plant response rating, Soybean” value (soybean (Glycine max); 125 g ai/ha) was 0 and the “Plant response rating, Lambsquarters” value ([2]; 16 g ai/ha) was 55. The “Plant response rating, Lambsquarters” value ([2]; 31 g ai/ha) was 98, the “Plant response rating, Lambsquarters” value ([2]; 62 g ai/ha) was 100 and the “Plant response rating, Lambsquarters” value ([2]; 125 g ai/ha) was 100. For the same compound, the “Plant response rating, Morningglory” value ([3]; 125 g ai/ha) was 20, the “Plant response rating, Morningglory” value ([3]; 500 g ai/ha) was 90 and the “Plant response rating, Crabgrass, Large” value ([4]; 125 g ai/ha) was 60. The “Plant response rating, Crabgrass, Large” value ([4]; 500 g ai/ha) was 90, the “Plant response rating, Nightshade” value ([5]; 16 g ai/ha) was 0 and the “Plant response rating, Nightshade” value ([5]; 31 g ai/ha) was 65. The “Plant response rating, Nightshade” value ([5]; 62 g ai/ha) was 75, the “Plant response rating, Nightshade” value ([5]; 125 g ai/ha) was 98 and the “Plant response rating, Ragweed” value ([6]; 16 g ai/ha) was 0. For the same compound, the “Plant response rating, Ragweed” value ([6]; 31 g ai/ha) was 0, the “Plant response rating, Ragweed” value ([6]; 62 g ai/ha) was 25 and the “Plant response rating, Ragweed” value ([6]; 125 g ai/ha) was 60. For the same compound, the “Plant response rating, Ryegrass, Italian” value ([7]; 16 g ai/ha) was 0, the “Plant response rating, Ryegrass, Italian” value ([7]; 31 g ai/ha) was 30 and the “Plant response rating, Ryegrass, Italian” value ([7]; 62 g ai/ha) was 35. The “Plant response rating, Ryegrass, Italian” value ([7]; 125 g ai/ha) was 100, the “Plant response rating, Surinam Grass” value ([8]; 16 g ai/ha) was 65 and the “Plant response rating, Surinam Grass” value ([8]; 31 g ai/ha) was 95. The “Plant response rating, Surinam Grass” value ([8]; 62 g ai/ha) was 100, the “Plant response rating, Surinam Grass” value ([8]; 125 g ai/ha) was 100 and the “Plant response rating, Oat, Wild” value (wild oat (Avena fatua); 16 g ai/ha) was 0. For the same compound, the “Plant response rating, Oat, Wild” value (wild oat (Avena fatua); 31 g ai/ha) was 0, the “Plant response rating, Oat, Wild” value (wild oat (Avena fatua); 62 g ai/ha) was 35 and the “Plant response rating, Oat, Wild” value (wild oat (Avena fatua); 125 g ai/ha) was 90. For the same compound, the “Plant response rating, Crabgrass, Large” value ([9]; 16 g ai/ha) was 95, the “Plant response rating, Crabgrass, Large” value ([9]; 31 g ai/ha) was 95 and the “Plant response rating, Crabgrass, Large” value ([9]; 62 g ai/ha) was 100. For the same compound, the “Plant response rating, Crabgrass, Large” value ([9]; 125 g ai/ha) was 100, the “Plant response rating, Blackgrass” value ([10]; 16 g ai/ha) was 0 and the “Plant response rating, Blackgrass” value ([10]; 31 g ai/ha) was 90. The “Plant response rating, Blackgrass” value ([10]; 62 g ai/ha) was 90, the “Plant response rating, Blackgrass” value ([10]; 125 g ai/ha) was 100 and the “Plant response rating, Morningglory” value ([11]; 16 g ai/ha) was 0. For the same compound, the “Plant response rating, Morningglory” value ([11]; 31 g ai/ha) was 0, the “Plant response rating, Morningglory” value ([11]; 62 g ai/ha) was 20 and the “Plant response rating, Morningglory” value ([11]; 125 g ai/ha) was 80. For the same compound, the “Plant response rating, Pigweed” value ([12]; 16 g ai/ha) was 0, the “Plant response rating, Pigweed” value ([12]; 31 g ai/ha) was 20 and the “Plant response rating, Pigweed” value ([12]; 62 g ai/ha) was 95. The “Plant response rating, Pigweed” value ([12]; 125 g ai/ha) was 100, the “Plant response rating, Morningglory” value ([13]; 125 g ai/ha) was 60 and the “Plant response rating, Morningglory” value ([13]; 500 g ai/ha) was 90. The “Plant response rating, Cupgrass, Woolly” value ([14]; 16 g ai/ha) was 85, the “Plant response rating, Cupgrass, Woolly” value ([14]; 31 g ai/ha) was 95 and the “Plant response rating, Cupgrass, Woolly” value ([14]; 62 g ai/ha) was 95. The “Plant response rating, Cupgrass, Woolly” value ([14]; 125 g ai/ha) was 100, the “Plant response rating, Bermudagrass” value ([15]; 16 g ai/ha) was 100 and the “Plant response rating, Bermudagrass” value ([15]; 31 g ai/ha) was 100. For the same compound, the “Plant response rating, Bermudagrass” value ([15]; 62 g ai/ha) was 100, the “Plant response rating, Bermudagrass” value ([15]; 125 g ai/ha) was 100 and the “Plant response rating, Wheat” value ([16]; 125 g ai/ha) was 0. The “Plant response rating, Wheat” value ([16]; 500 g ai/ha) was 60, the “Plant response rating, Bromegrass, Downy” value ([17]; 16 g ai/ha) was 0 and the “Plant response rating, Bromegrass, Downy” value ([17]; 31 g ai/ha) was 0. The “Plant response rating, Bromegrass, Downy” value ([17]; 62 g ai/ha) was 20, the “Plant response rating, Bromegrass, Downy” value ([17]; 125 g ai/ha) was 40 and the “Plant response rating, Wheat” value ([18]; 125 g ai/ha) was 20. The “Plant response rating, Wheat” value ([18]; 500 g ai/ha) was 60, the “Plant response rating, Barnyardgrass” value ([19]; 125 g ai/ha) was 80 and the “Plant response rating, Barnyardgrass” value ([19]; 500 g ai/ha) was 90.
